This assay concerns the target PKMYT1 (Homo sapiens (Human), UniProt Q99640). The experiment in a line: In vitro assay: kinase binding to immobilized ligand, captured kinase measured by qPCR.

Chain of PKMYT1 (Q99640 whole entry): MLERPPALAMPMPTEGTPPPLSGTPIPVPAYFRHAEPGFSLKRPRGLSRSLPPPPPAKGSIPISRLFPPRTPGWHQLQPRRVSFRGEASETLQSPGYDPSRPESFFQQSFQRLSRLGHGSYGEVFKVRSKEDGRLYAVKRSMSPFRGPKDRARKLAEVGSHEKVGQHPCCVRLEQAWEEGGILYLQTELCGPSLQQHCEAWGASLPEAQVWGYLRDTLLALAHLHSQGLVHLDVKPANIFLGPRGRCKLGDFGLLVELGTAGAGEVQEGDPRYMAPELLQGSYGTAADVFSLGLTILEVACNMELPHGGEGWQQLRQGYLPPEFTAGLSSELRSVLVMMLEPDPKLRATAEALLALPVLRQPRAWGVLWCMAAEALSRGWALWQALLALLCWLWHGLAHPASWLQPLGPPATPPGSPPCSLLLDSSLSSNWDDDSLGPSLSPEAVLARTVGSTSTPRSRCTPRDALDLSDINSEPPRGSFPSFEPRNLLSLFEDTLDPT
Description: Screening “hits” were identified by measuring the amount of kinase captured in test versus control samples by using a quantitative, precise and ultra-sensitive qPCR method that detect the associated DNA label.

`Cc1ccc(O)c(C)c1-n1c(N)c(C(N)=O)c2cnc(N3CC[C@@H](O)C3)nc21` [Compound 583, 6-amino-7-(3-hydroxy-2,6-dimethyl-phenyl)-2-[(3R)-3-hydroxypyrrolidin-1-yl]pyrrolo[2,3-d]pyrimidine-5-carboxamide]: the IC50 (usually the concentration that gives 50% inhibition) is less than 50 nM.

In the case of `CCN(CC)c1ncc2c(C(N)=O)c(N)n(-c3c(C)ccc(O)c3C)c2n1` [Compound 609, 6-amino-2-(diethylamino)-7-(3-hydroxy-2,6-dimethylphenyl)-7H-pyrrolo[2,3-d]pyrimidine-5-carboxamide], the IC50 is less than 50 nM.

Compound `Cc1ccn2c(-c3c(C)ccc(O)c3C)c(N)c(C(N)=O)c2c1` [Compound 552, 2-amino-3-(3-hydroxy-2,6-dimethylphenyl)-7-methylindolizine-1-carboxamide] displayed a concentration for half-maximal inhibition (IC50) of 100 to 1000 nM.

On to `Cc1ccc(O)c(C)c1-n1c(N)c(C(N)=O)c2cnc(N[C@H]3CCC[C@@H]3O)nc21` [Compound 579, 6-amino-7-(3-hydroxy-2,6-dimethylphenyl)-2-(((1S,2S)-2-hydroxycyclopentyl)amino)-7H-pyrrolo[2,3-d]pyrimidine-5-carboxamide], for which the IC50 was less than 50 nM.

As for `Cc1ccc(O)c(C)c1-n1c(N)c(C(N)=O)c2cc3c(nc21)OCCN3C` [Compound 568, 7-amino-6-(3-hydroxy-2,6-dimethylphenyl)-1-methyl-1,2,3,6-tetrahydropyrrolo [3′,2′:5,6]pyrido[2,3-b][1,4]oxazine-8-carboxamide], the IC50 is less than 50 nM.

Regarding `Cc1cc2c(c(C)c1-n1c(N)c(C(N)=O)c3cc(Cl)cnc31)OCO2` [Compound 546, 2-amino-5-chloro-1-(4,6-dimethylbenzo[d][1,3]dioxol-5-yl)-1H-pyrrolo[2,3-b]pyridine-3-carboxamide], the IC50 was greater than 1000 nM.

The compound `Cc1ccc(O)c(C)c1-n1c(N)c(C(N)=O)c2cnc(N[C@@H]3CCC[C@@H]3O)nc21` (atropisomer, axis not shown) [Compound 591] showed an IC50 of 50 to 100 nM.

`Cc1ccn2c(-c3c(C)ccc(O)c3C)c(N)c(C(N)=O)c2n1` [Compound 550, 7-amino-6-(3-hydroxy-2,6-dimethyl-phenyl)-2-methyl-pyrrolo[1,2-a]pyrimidine-8-carboxamide] returned an IC50 of 100 to 1000 nM.

Turning to `Cc1ccc(O)c(C)c1-n1c(N)c(C(N)=O)c2cnc(C#Cc3ccc(F)cc3)c(F)c21` [Compound 622, 2-amino-7-fluoro-6-((4-fluorophenyl)ethynyl)-1-(3-hydroxy-2,6-dimethylphenyl)-1H-pyrrolo[3,2-c]pyridine-3-carboxamide], the IC50 was 50 to 100 nM.

The compound `Cc1cn2c(C(N)=O)c(N)c(-c3c(C)ccc(O)c3C)c2cn1` [Compound 555, 7-amino-8-(3-hydroxy-2,6-dimethyl-phenyl)-3-methyl-pyrrolo[1,2-a]pyrazine-6-carboxamide] registered a half-inhibitory concentration (IC50) of less than 50 nM.

Turning to `Cc1ccc(O)c(C)c1-n1c(N)c(C(N)=O)c2cnc(N3CC[C@H](O)C3)nc21` [Compound 581, 6-amino-7-(3-hydroxy-2,6-dimethyl-phenyl)-2-[(3S)-3-hydroxypyrrolidin-1-yl]pyrrolo[2,3-d]pyrimidine-5-carboxamide], the IC50 is less than 50 nM.

`Cc1ccc(O)c(C)c1-c1c(N)c(C(N)=O)c2nccc(C)n12` [Compound 548, 7-amino-6-(3-hydroxy-2,6-dimethyl-phenyl)-4-methyl-pyrrolo[1,2-a]pyrimidine-8-carboxamide]: the IC50 lay within 100 to 1000 nM.

`Cc1ccc(O)c(C)c1-n1c(N)c(C(N)=O)c2cnc(Cl)nc21` [Compound 618, 6-amino-2-chloro-7-(3-hydroxy-2,6-dimethylphenyl)-7H-pyrrolo[2,3-d]pyrimidine-5-carboxamide] came in with an IC50 of less than 50 nM.

Compound `Cc1ccc(O)c(C)c1-n1c(N)c(C(N)=O)c2cnc(NCCO)nc21` (single isomer, unassigned) [Compound 585, 6-amino-7-(3-hydroxy-2,6-dimethylphenyl)-2-((2-hydroxyethyl)amino)-7H-pyrrolo[2,3-d]pyrimidine-5-carboxamide] registered an IC50 greater than 1000 nM.

Consider `Cc1ccc(O)c(C)c1-n1c(N)c(C(N)=O)c2cnc(N[C@@H]3CCC[C@H]3O)nc21` [Compound 580, 6-amino-7-(3-hydroxy-2,6-dimethylphenyl)-2-(((1R,2R)-2-hydroxycyclopentyl)amino)-7H-pyrrolo[2,3-d]pyrimidine-5-carboxamide], for which the IC50 was less than 50 nM.

Compound `Cc1ccc(O)c(C)c1-n1c(N)c(C(N)=O)c2cnc(S(C)(=O)=O)nc21` [Compound 625, 6-amino-7-(3-hydroxy-2,6-dimethylphenyl)-2-(methylsulfonyl)-7H-pyrrolo[2,3-d]pyrimidine-5-carboxamide] registered an IC50 of less than 50 nM.

In turn, `Cc1ccc(O)c(C)c1-n1c(N)c(C(N)=O)c2cnc(NCCO)nc21` (atropisomer, axis not shown) [Compound 588, 6-amino-7-(3-hydroxy-2,6-dimethylphenyl)-2-((2-hydroxyethyl)amino)-7H-pyrrolo[2,3-d]pyrimidine-5-carboxamide] came in with an IC50 of less than 50 nM.

For the compound `Cc1ccc(O)c(C)c1-n1c(N)c(C(N)=O)c2cnc(C(F)(F)F)nc21` [Compound 608, 6-amino-7-(3-hydroxy-2,6-dimethylphenyl)-2-(trifluoromethyl)-7H-pyrrolo[2,3-d]pyrimidine-5-carboxamide], the IC50 was less than 50 nM.

With `Cc1ccc(O)c(C)c1-n1c(N)c(C(N)=O)c2cnc(C#CC3CC3)nc21` [Compound 621], the 50% inhibitory concentration (IC50) was less than 50 nM.

Consider `Cc1ccc(O)c(C)c1-n1c(N)c(C(N)=O)c2cncnc21` (single isomer, unassigned) [Compound 571, 6-amino-7-(3-hydroxy-2,6-dimethylphenyl)-7H-pyrrolo[2,3-d]pyrimidine-5-carboxamide], for which the IC50 lay within 100 to 1000 nM.

With `Cc1cnc2c(c1)c(C(N)=O)c(N)n2-c1c(C)ccc2ocnc12` [Compound 553, 2-amino-5-methyl-1-(5-methylbenzo[d]oxazol-4-yl)-1H-pyrrolo[2,3-b]pyridine-3-carboxamide], the IC50 lay in the range of 100 to 1000 nM.

`Cc1ccc(O)c(C)c1-n1c(N)c(C(N)=O)c2c(C)ncc(F)c21` [Compound 582, 2-amino-7-fluoro-1-(3-hydroxy-2,6-dimethyl-phenyl)-4-methyl-pyrrolo[3,2-c]pyridine-3-carboxamide] gave an IC50 of less than 50 nM.

Take `Cc1ncc2c(C(N)=O)c(N)n(-c3c(C)c(O)cc(F)c3C)c2n1` [Compound 595, 6-amino-7-(3-fluoro-5-hydroxy-2,6-dimethyl-phenyl)-2-methyl-pyrrolo[2,3-d]pyrimidine-5-carboxamide]: the IC50 is less than 50 nM.

`Cc1ccc(O)c(C)c1-n1c(N)c(C(N)=O)c2cncc(F)c21` (atropisomer, axis not shown) [Compound 624, 2-amino-7-fluoro-1-(3-hydroxy-2,6-dimethyl-phenyl)pyrrolo[3,2-c]pyridine-3-carboxamide] yielded an IC50 of less than 50 nM.

`Cc1ccc(O)c(C)c1-n1c(N)c(C(N)=O)c2cnc(NC(=O)[C@H]3CCCN3)nc21` [Compound 584, 6-amino-7-(3-hydroxy-2,6-dimethylphenyl)-2-(pyrrolidine-2-carboxamido)-7H-pyrrolo[2,3-d]pyrimidine-5-carboxamide] displayed an IC50 of 100 to 1000 nM.

Compound `Cc1ncc2c(C(N)=O)c(N)n(-c3c(C)c(O)cc(Cl)c3C)c2n1` [Compound 619, 6-amino-7-(3-chloro-5-hydroxy-2,6-dimethylphenyl)-2-methyl-7H-pyrrolo[2,3-d]pyrimidine-5-carboxamide] returned a concentration for half-maximal inhibition (IC50) of less than 50 nM.

The values are drawn from patent publication US20250388583A1, “COMPOUNDS AND METHOD FOR PKMYT1 INHIBITION” (Engine Biosciences Pte. Ltd., priority 2022, published 2025).
